pIC50: −log10 of the molar value. Where a name gives a salt, the structure may show the parent alone. Read-outs that look alike come from different tables or passages of the source.
Tests used:
[1] = biological target: T1, glycine transporter-1 (GlyT-1) (Homo sapiens, UniProt P48067); experiment: [14C]glycine uptake assay in JAR cells endogenously expressing GlyT-1 (scintillation proximity); type: cell-based; conditions: JAR cells, [14C]glycine 5 μM, 3 hour incubation; read-out: GlyT-1 IC50
T1 construct: JAR cells (ATCC#HTB-144), which endogenously express GlyT-1; host or cells: JAR human choriocarcinoma cells
T1 sequence (P48067 1-706): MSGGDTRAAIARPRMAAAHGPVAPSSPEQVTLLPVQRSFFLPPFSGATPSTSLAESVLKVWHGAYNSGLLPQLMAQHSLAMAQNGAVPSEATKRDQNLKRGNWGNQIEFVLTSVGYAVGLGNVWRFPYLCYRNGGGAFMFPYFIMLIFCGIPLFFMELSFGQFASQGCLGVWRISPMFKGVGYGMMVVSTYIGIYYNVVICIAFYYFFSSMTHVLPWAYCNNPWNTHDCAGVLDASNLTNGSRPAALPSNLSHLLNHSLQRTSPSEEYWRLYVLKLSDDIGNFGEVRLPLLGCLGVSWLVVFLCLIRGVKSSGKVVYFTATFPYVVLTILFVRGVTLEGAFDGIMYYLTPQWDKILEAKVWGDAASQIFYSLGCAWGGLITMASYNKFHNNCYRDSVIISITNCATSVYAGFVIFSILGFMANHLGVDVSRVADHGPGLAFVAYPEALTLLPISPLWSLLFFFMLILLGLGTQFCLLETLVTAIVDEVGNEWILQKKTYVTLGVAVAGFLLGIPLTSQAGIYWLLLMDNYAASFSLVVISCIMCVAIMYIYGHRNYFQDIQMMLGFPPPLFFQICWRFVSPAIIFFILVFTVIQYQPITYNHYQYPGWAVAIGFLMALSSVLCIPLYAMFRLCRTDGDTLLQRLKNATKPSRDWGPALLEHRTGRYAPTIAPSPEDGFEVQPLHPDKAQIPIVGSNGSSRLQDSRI
Method in brief: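 Human choriocarcinoma JAR cells (endogenous GlyT-1) attached overnight, then pre-incubated 10 min at room temperature with compound in pH 7.4 Hepes uptake buffer containing 5 mM alanine and 0.75% DMSO. Uptake of 5 μM [14C]glycine over 3 h at 37 °C read by scintillation proximity; IC50 from four-parameter fit of nine-point curves.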

[2] = test system: cerebrospinal fluid (CSF) glycine levels; experiment: CSF-glycine assay after oral administration; type: in vivo; conditions: rats; for change in vivo at 10 mg/kg / change in vivo at 30 mg/kg / change in vivo at 3 mg/kg: Rattus norvegicus, po, read-out: % CSF Glycine Increase versus Vehicle Control
Protocol: This study measured cerebrospinal fluid (CSF) glycine levels after oral administration of test compound. […] After the specified pretreatment time, the rats were euthanized by CO2 asphyxiation and a hypodermic needle was inserted into the cisterna magna to withdraw 50-100 μl of CSF. The CSF was diluted with deuterated-glycine as an internal standard glycine was quantified by LC/MS/MS.

[3] = biological target: T2, glycine transporter-2 (GlyT-2) (Homo sapiens, UniProt Q9Y345); experiment: [14C]glycine uptake assay in HEK-GlyT-2 transfected cells; type: cell-based; conditions: HEK-GlyT-2 cells
T2 construct: expressed in transfected cells
T2 sequence (Q9Y345 1-797): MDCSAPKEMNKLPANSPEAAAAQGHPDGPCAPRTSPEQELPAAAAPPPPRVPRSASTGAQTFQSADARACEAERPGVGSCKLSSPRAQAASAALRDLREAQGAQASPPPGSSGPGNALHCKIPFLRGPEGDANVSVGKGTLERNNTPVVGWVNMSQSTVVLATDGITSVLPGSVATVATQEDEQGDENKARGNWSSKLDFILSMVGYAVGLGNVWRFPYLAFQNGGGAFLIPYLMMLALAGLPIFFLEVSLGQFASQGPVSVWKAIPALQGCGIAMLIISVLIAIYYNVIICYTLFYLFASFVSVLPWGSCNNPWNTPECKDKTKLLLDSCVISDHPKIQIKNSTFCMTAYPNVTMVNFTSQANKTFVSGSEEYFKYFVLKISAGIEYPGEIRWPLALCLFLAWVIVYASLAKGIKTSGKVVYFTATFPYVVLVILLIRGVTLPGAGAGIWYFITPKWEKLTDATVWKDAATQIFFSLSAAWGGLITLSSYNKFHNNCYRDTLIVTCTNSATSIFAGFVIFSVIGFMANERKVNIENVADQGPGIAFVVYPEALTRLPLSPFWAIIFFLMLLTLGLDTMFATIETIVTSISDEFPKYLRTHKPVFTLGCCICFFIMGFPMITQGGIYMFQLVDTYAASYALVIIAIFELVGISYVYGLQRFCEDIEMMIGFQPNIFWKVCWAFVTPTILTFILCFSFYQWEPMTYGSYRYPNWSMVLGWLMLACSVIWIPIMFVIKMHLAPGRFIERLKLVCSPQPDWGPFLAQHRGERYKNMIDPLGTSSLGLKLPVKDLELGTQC

[4] = 2 h, dose 10 mg/kg, pretreatment 120 mins
[5] = 2 h, dose 30 mg/kg, pretreatment 120 mins
[6] = 6 h, dose 10 mg/kg, pretreatment 360 mins

Row | Compound | melting point [°C] | pIC50 [1] | change in vivo at 10 mg/kg [2, 4] [%] | pIC50 [3] | other results
1 | Cn1cc(S(=O)(=O)N2CCN(C3(CNC(=O)c4ccc(C(F)(F)F)cc4C(F)(F)F)CCOCC3)CC2)nn1 (as salt: hydrochloride) [compound 276, N-((4-(4-(1-Methyl-1H-1,2,3-triazol-4-ylsulfonyl)piperazin-1-yl)tetrahydro-2H-pyran-4-yl)methyl)-2,4-bis(trifluoromethyl) benzamide Hydrochloride] | 145 |  |  |  | 
2 | CC(=O)CS(=O)(=O)N1CCN(C2(CNC(=O)c3ccc(C(F)(F)F)cc3Cl)CCC(F)(F)CC2)CC1 (as salt: hydrochloride) [compound 280, 2-Chloro-N-((4,4-difluoro-1-(4-(2-oxopropylsulfonyl)piper-azin-1-yl)cyclohexyl)methyl)-4-(trifluoromethyl) benzamide Hydrochloride] | 65 to 67 |  |  |  | 
3 | CC(O)CS(=O)(=O)N1CCN(C2(CNC(=O)c3ccc(C(F)(F)F)cc3Cl)CCC(F)(F)CC2)CC1.Cl (single isomer, unassigned; enantiomer a) [compound 278, (Enantiomer A)-2-Chloro-N-((4,4-difluoro-1-(4-(2-hydroxypropylsulfonyl)piperazin-1-yl)cyclohexyl)methyl)-4-(trifluoromethyl) benzamide Hydrochloride] | 80 to 82 | 7.62 |  |  | 
4 | Cn1cc(S(=O)(=O)N2CCN(C3(CNC(=O)c4ccc(C(F)(F)F)cc4Cl)CCC(F)(F)CC3)CC2)nn1 [compound 193, 2-Chloro-N-((4,4-difluoro-1-(4-(1-methyl-1H-1,2,3-triazol-4-ylsulfonyl)piperazin-1-yl)cyclohexyl)methyl)-4-(trifluoromethyl)benzamide Hydrochloride] |  | 9.00 | 282 | < 4.12 | change in vivo at 30 mg/kg [2, 5]: 279%; change in vivo at 10 mg/kg [2, 6]: 303%; change in vivo at 30 mg/kg ([2]; 6 h, dose 30 mg/kg, pretreatment 360 mins): 355%
5 | CC(NC(=O)c1ccc(F)cc1Cl)C1(N2CCN(S(=O)(=O)c3cn(C)nn3)CC2)CCC(F)(F)CC1 (centres unmarked) [compound 219, 2-Chloro-N-(1-(4,4-difluoro-1-(4-(1-methyl-1H-1,2,3-triazol-4-ylsulfonyl)piperazin-1-yl)cyclohexyl)ethyl)-4-fluorobenzamide Hydrochloride] |  | 8.52 | 310 | < 4.12 | change in vivo at 3 mg/kg ([2]; 2 h, pretreatment 120 mins): 181%
6 | Cn1cc(S(=O)(=O)N2CCN(C3(CNC(=O)c4ccc(C(F)(F)F)cc4C(F)(F)F)CCC(F)(F)CC3)CC2)nn1 [compound 221, N-((4,4-Difluoro-1-(4-(1-methyl-1H-1,2,3-triazol-4-ylsulfonyl)piperazin-1-yl)cyclohexyl)methyl)-2,4-bis(trifluoromethyl) benzamide Hydrochloride] |  | 9.00 | 226 | < 4.12 | change in vivo at 10 mg/kg [2, 6]: 241%
7 | CC(NC(=O)c1ccc(C(F)(F)F)cc1Cl)C1(N2CCN(S(=O)(=O)c3cn(C)nn3)CC2)CCC(F)(F)CC1 (centres unmarked) [compound 224, 2-Chloro-N-(1-(4,4-difluoro-1-(4-(1-methyl-1H-1,2,3-triazol-4-ylsulfonyl)piperazin-1-yl)cyclohexyl)ethyl)-4-(trifluoromethyl)benzamide Hydrochloride] |  | 9.00 | 347 | < 4.12 | change in vivo at 3 mg/kg ([2]; 2 h, pretreatment 120 mins): 186%
8 | CC(NC(=O)c1ccc(C(F)(F)F)cc1C(F)(F)F)C1(N2CCN(S(=O)(=O)c3cn(C)nn3)CC2)CCC(F)(F)CC1 (centres unmarked) [compound 226, N-(1-(4,4-Difluoro-1-(4-(1-methyl-1H-1,2,3-triazol-4-ylsulfonyl)piperazin-1-yl)cyclohexyl)ethyl)-2,4-bis(trifluoromethyl) benzamide Hydrochloride] |  | 9.00 | 344 | < 4.12 | change in vivo at 3 mg/kg ([2]; 2 h, pretreatment 120 mins): 243%; change in vivo at 3 mg/kg ([2]; 6 h, pretreatment 360 mins): 227%; change in vivo at 10 mg/kg [2, 6]: 339%
9 | CC(O)CS(=O)(=O)N1CCN(C2(CNC(=O)c3ccc(C(F)(F)F)cc3Cl)CCC(F)(F)CC2)CC1 (centres unmarked) [compound 252, 2-Chloro-N-((4,4-difluoro-1-(4-(2-hydroxypropylsulfonyl)piperazin-1-yl)cyclohexyl)methyl)-4-(trifluoromethyl)benzamide Hydrochloride] |  | 7.48 |  | < 4.12 | change in vivo at 30 mg/kg [2, 5]: 207%
10 | Cl.Cn1cc(S(=O)(=O)N2CCN(C3(CNC(=O)c4ccc(C(F)(F)F)cc4Cl)CCOCC3)CC2)nn1 [compound 277, 2-Chloro-N-((4-(4-(1-methyl-1H-1,2,3-triazol-4-ylsulfonyl)piperazin-1-yl)tetrahydro-2H-pyran-4-yl)methyl)-4-(trifluoromethyl)benzamide Hydrochloride] | 147 | 8.10 |  |  | 
11 | Cl.Cn1cnc(S(=O)(=O)N2CCN(C3(CNC(=O)c4ccc(C(F)(F)F)cc4Cl)CCC(F)(F)CC3)CC2)n1 [compound 281, 2-Chloro-N-((4,4-difluoro-1-(4-(1-methyl-1H-1,2,4-triazol-3-ylsulfonyl)piperazin-1-yl)cyclohexyl)methyl)-4-(trifluoromethyl)benzamide Hydrochloride] | 180 to 185 | 6.55 |  |  | 
12 | N-((4,4-Difluoro-1-(4- (propylsulfonyl)piperazin- 1-yl)cyclohexyl)methyl)- 2,4-bis(trifluoromethyl) benzamide Hydrochloride [compound 246] |  | 8.15 |  | < 4.12 | % CSF Glycine Increase versus Vehicle Control ([2]; dose 10 mg/kg, pretreatment 120 mins): 191%; % CSF Glycine Increase versus Vehicle Control ([2]; dose 10 mg/kg, pretreatment 360 mins): 166%; % CSF Glycine Increase versus Vehicle Control ([2]; dose 30 mg/kg, pretreatment 120 mins): 205%; % CSF Glycine Increase versus Vehicle Control ([2]; dose 30 mg/kg, pretreatment 360 mins): 244%

From patent US9045445B2, “Glycine transporter-1 inhibitors, methods of making them, and uses thereof” (Albany Molecular Research, Inc., priority 2010, dated 2015)
